Reference: paper PMC6838683, “Discovery of Human Signaling Systems: Pairing Peptides to G Protein-Coupled Receptors” (Cell, 2019)
Residues, ends and D or L forms follow the SMILES beside them.

Experiments:
Assay type in all cases: cell-based
BB3 [1] = molecular target: T1, BB3 (Homo sapiens, UniProt P32247); assay: IP1 accumulation (Gq/11), HTRF
T1 construct: hIL-2Ra signal peptide (N); expressed in transfected cells
T1 sequence (P32247 2-399 limits assumed): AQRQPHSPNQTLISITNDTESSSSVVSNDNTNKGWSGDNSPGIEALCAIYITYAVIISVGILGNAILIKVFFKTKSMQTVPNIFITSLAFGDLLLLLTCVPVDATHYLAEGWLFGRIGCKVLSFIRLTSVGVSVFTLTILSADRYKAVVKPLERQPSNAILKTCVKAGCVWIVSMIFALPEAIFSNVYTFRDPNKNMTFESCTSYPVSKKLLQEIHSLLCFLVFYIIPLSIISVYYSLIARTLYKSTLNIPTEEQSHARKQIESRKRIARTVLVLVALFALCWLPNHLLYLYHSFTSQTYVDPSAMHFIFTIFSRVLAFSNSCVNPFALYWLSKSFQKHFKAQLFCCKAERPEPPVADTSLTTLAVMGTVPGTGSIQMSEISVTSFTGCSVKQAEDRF

BB3 [2] = molecular target: T1, BB3; assay: Dynamic mass redistribution (DMR), concentration-response
BB3 [3] = molecular target: T1, BB3; assay: Real-time receptor internalization (TR-FRET), concentration-response
GPR55 [4] = molecular target: T2, GPR55 (Homo sapiens, UniProt Q9Y2T6); assay: as above; design: hIL-2Ra signal peptide (N); expressed in transfected cells; conditions: receptor GPR55; mean, SEM and n (3-4); read-out: Internalization assays pEC50 (converted)
Procedure: (§1) 48 hr prior to parallel assaying, SNAP-tagged oGPCR cells were plated (10,000 cells/well) in fibronectin-coated 384-well Epic biosensor microplates (Corning) and poly-D-lysine coated white 384-well plates (for internalization assays). SNAP- GLP-1 receptor was plated alongside orphan receptor cells as an internal assay control for internalization assays. Receptor-expression was induced with 0.1 μg/ml doxycycline.
A TR-FRET real-time internalization assay was used to examine peptide-dependent changes in orphan receptor localization as described previously ([Foster and Bräuner-Osborne, 2018]). Surface-expressed SNAP-tagged receptors were labeled with a cell-impermeable luminescent terbium cryptate (100 nM SNAP Lumi4-Tb; Cisbio, France) for 1 hr at 37°C. Cells were washed to remove excess terbium and incubated with fluorescein-O-acetic acid (100 μM; Sigma Aldrich) for 5 min at 37°C. Peptides were added as for DMR assays, and internalization responses were recorded for 60 min at 37°C using an EnVision 2104 Multimode plate reader (PerkinElmer). 100 nM GLP-1 was used as a positive control for SNAP-GLP1R internalization. Real-time internalization responses were calculated based on TR-FRET (excitation 340 nm; emission 520 nm and 615 nm), and were expressed as the ratio between donor (terbium) and acceptor (fluorescein) emission. For peptide screening analysis (both DMR and internalization assays), we calculated the area under the curve from the real-time traces. […] Validation experiments for receptor internalization were performed as above. Internalization data was processed in MS-Excel and area under the curve was used to generate concentration-response curves using GraphPad Prism 7.0. Data represent mean ± standard error of the mean (SEM) from at least 3 biologically independent experiments.

GPR55 [5] = molecular target: T2, GPR55; assay: Dynamic mass redistribution (DMR), concentration-response; design: hIL-2Ra signal peptide (N); expressed in transfected cells; conditions: receptor GPR55; mean, SEM and n (2-4); read-out: DMR assays pEC50 (converted)
Procedure: as §1
DMR assays provide a single integrated readout of ligand-dependent cellular response, utilizing an optical biosensor in specialized microplates to detect wavelength shifts of reflected light as it passes through the biosensor and the lower portion of the cell (∼150-200 nm). As a signal pathway agnostic approach, DMR assays are well-suited to the study of GPCRs ([Fang et al., 2008], [Schröder et al., 2011]). The mass redistribution response (Δ picometer (pm)) likely reflects a number of intracellular events, including cytoskeletal rearrangement, protein trafficking and receptor internalization. Orphan receptor-expressing cells were gently washed twice with assay buffer (HBSS with 1 mM CaCl2, 1 mM MgCl2, 20 mM HEPES, 0.01% pluronic F-68, pH 7.4) containing 0.1% DMSO and cells were equilibrated for 90 min at 22°C in the EPIC Benchtop (BT) System (Corning) to establish a stable DMR signal. After 3-5 min baseline recordings, peptides (10 μM) were added in duplicate wells using an electronic 384-channel Viaflo pipette (Integra Biosciences, Switzerland) and DMR responses were measured for 60 min at 22°C. 100 nM norepinephrine was included as an internal assay control to assess the cellular DMR response via endogenously-expressed adrenoceptors in the TREx 293 cells. Real-time data were processed using the BT to column converter MS-Excel macro (Corning) and analyzed in GraphPad Prism 7.0. DMR recordings in peptide screening experiments were buffer and solvent corrected and the area under the curve (AUC) was quantified. For subsequent validation experiments, peptides were diluted in assay buffer containing 0.1% DMSO and DMR assays were performed as above. […] Data represent mean ± standard error of the mean (SEM) from at least 3 biologically independent experiments.

GPR1 = molecular target: T3, GPR1 (Homo sapiens, UniProt P46091); assay: β-arrestin recruitment (PathHunter); conditions: receptor GPR1; mean, SEM and n (2-3); read-out: b-arrestin recruitment assays (PathHunter) pEC50 (converted)
T3 sequence (P46091 1-355): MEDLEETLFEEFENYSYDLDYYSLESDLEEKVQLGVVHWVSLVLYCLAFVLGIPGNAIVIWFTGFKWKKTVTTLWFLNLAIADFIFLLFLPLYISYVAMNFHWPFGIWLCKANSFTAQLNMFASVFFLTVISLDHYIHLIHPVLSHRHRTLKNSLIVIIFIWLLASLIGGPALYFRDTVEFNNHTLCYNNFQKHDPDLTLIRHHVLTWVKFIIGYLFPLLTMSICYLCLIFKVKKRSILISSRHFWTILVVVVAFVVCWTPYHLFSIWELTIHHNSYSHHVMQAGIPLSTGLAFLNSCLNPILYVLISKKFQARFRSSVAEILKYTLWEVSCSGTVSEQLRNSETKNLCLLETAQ
Procedure: PathHunter eXpress Assays (DiscoverX) were performed in 384-well format according to the manufacturer’s recommendations. GPR1 cells were incubated with peptides for 90 min and luminescence measured using an EnSpire 2300 Multimode plate reader (PerkinElmer).

[6] = receptor BB3, mean, SEM and n (2-4), read-out: IP1 accumulation assays pEC50 (converted)
[7] = receptor BB3, mean, SEM and n (3), read-out: DMR assays pEC50 (converted)
[8] = receptor BB3, mean, SEM and n (3), read-out: Internalization assays pEC50 (converted)
[9] = receptor BB3, mean, SEM and n (3)

T2 sequence (Q9Y2T6 2-319 limits assumed): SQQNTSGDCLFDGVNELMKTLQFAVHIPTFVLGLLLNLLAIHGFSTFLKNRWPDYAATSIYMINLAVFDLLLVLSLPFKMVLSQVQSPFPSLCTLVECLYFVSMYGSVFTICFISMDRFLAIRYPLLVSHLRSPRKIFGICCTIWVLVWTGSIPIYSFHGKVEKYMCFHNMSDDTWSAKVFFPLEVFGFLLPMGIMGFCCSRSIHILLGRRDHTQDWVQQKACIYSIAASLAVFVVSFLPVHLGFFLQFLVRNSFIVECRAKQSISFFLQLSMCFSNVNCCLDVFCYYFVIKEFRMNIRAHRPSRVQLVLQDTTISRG

Compound: CC(C)C[C@H](NC(=O)[C@H](CCCCN)NC(=O)[C@H](CCC(N)=O)NC(=O)[C@@H](NC(=O)[C@H](CCCCN)NC(=O)[C@H](CO)NC(=O)[C@H](Cc1ccc(O)cc1)NC(=O)[C@H](Cc1c[nH]cn1)NC(=O)[C@H](Cc1ccccc1)NC(=O)[C@H](CC(C)C)NC(=O)[C@@H](N)Cc1ccccc1)[C@@H](C)O)C(N)=O [67 resynthesized] (H-FLFHYSKTQKL-NH2)
- EC50 (BB3 [1]; [6]): 1.66 µM
- EC50 (BB3 [2]; [7]): 2.69 µM
- EC50 (BB3 [3]; [8]): 34.7 µM

Compound: CC[C@H](C)[C@H](NC(=O)[C@H](CC(=O)O)NC(=O)[C@@H](NC(=O)[C@H](Cc1ccc(O)cc1)NC(=O)[C@@H](NC(=O)CNC(=O)[C@H](CC(N)=O)NC(=O)[C@@H](NC(=O)[C@H](CC(C)C)NC(=O)[C@H](Cc1ccc(O)cc1)NC(=O)[C@H](CC(=O)O)NC(=O)[C@H](CC(C)C)NC(=O)[C@H](CCCNC(=N)N)NC(=O)[C@H](CO)NC(=O)[C@H](Cc1ccc(O)cc1)NC(=O)[C@H](CCCNC(=N)N)NC(=O)[C@@H](N)CCCCN)[C@@H](C)CC)[C@@H](C)CC)C(C)C)C(=O)O [114 resynthesized] (H-KRYSRLDYLINGIYVDI-OH)
- EC50 (GPR55 [4]): 15.8 µM
- EC50 (GPR55 [5]): 3.89 µM

Compound: CSCC[C@H](NC(=O)[C@H](Cc1ccccc1)NC(=O)CNC(=O)CNC(=O)[C@@H](N)Cc1ccc(O)cc1)C(=O)N[C@@H](CCCNC(=N)N)C(=O)N[C@@H](CCCNC(=N)N)C(=O)N[C@H](C(=O)NCC(=O)N[C@@H](CCCNC(=N)N)C(=O)N1CCC[C@H]1C(=O)N[C@@H](CCC(=O)O)C(=O)N[C@@H](Cc1c[nH]c2ccccc12)C(=O)N[C@@H](Cc1c[nH]c2ccccc12)C(=O)N[C@@H](CCSC)C(=O)N[C@@H](CC(=O)O)C(=O)N[C@@H](Cc1ccc(O)cc1)C(=O)N[C@@H](CCC(N)=O)C(=O)N[C@@H](CCCCN)C(=O)N[C@@H](CCCNC(=N)N)C(=O)N[C@@H](Cc1ccc(O)cc1)C(=O)NCC(=O)NCC(=O)N[C@@H](Cc1ccccc1)C(=O)N[C@@H](CC(C)C)C(=O)O)C(C)C [158 resynthesized] (H-YGGFMRRVGRPEWWMDYQKRYGGFL-OH)
- EC50 (BB3 [1]; IP1 accumulation assays pEC50, receptor BB3, mean, SEM and n (2-4)): 3.72 µM
- EC50 (BB3 [2]; DMR assays pEC50, receptor BB3, mean, SEM and n (3)): 110 µM
- EC50 (BB3 [3]; Internalization assays pEC50): 3.89 µM

Compound: CC(C)C[C@H](NC(=O)[C@H](Cc1ccccc1)NC(=O)CNC(=O)CNC(=O)[C@@H](N)Cc1ccc(O)cc1)C(=O)O [158.2 (Phoenix)]
- EC50 (BB3 [1]): 0.0158 µM
- EC50 (BB3 [2]): 0.245 µM
- EC50 (BB3 [3]): 4.68 µM

Compound: CC(C)C[C@H](NC(=O)[C@H](CCCCN)NC(=O)[C@H](CCC(N)=O)NC(=O)[C@@H](NC(=O)[C@H](CCCCN)NC(=O)[C@H](CO)NC(=O)[C@H](Cc1ccc(O)cc1)NC(=O)[C@H](Cc1c[nH]cn1)NC(=O)[C@H](Cc1ccccc1)NC(=O)[C@H](CC(C)C)NC(=O)[C@@H](N)Cc1ccccc1)[C@@H](C)O)C(N)=O [Neuromedin U pre-pro_(1-11)] (H-FLFHYSKTQKL-NH2)
- EC50 (BB3 [1]; BB3, mean, SEM and n, read-out: pEC50, IP1 (converted)): 2.19 µM
- EC50 (BB3 [2]; BB3, mean, SEM and n, read-out: pEC50, DMR (peak) (converted)): 2.29 µM
- EC50 (BB3 [3]; BB3, mean, SEM and n, read-out: pEC50, Internalization (AUC) (converted)): 31.6 µM

Compound: CC(C)C[C@H](NC(=O)[C@H](CCCNC(=N)N)NC(=O)[C@@H](N)CCCCN)C(=O)NCC(=O)N[C@@H](CCC(=O)O)C(=O)N[C@@H](CC(C)C)C(=O)N[C@@H](Cc1ccccc1)C(=O)N[C@@H](CC(N)=O)C(=O)N1CCC[C@H]1C(=O)N[C@@H](Cc1ccc(O)cc1)C(=O)N[C@@H](Cc1ccc(O)cc1)C(=O)N[C@@H](CC(=O)O)C(=O)N1CCC[C@H]1C(=O)N[C@@H](CC(C)C)C(=O)N[C@@H](CCC(N)=O)C(=O)N[C@@H](Cc1c[nH]c2ccccc12)C(=O)N[C@@H](CCCCN)C(=O)N[C@@H](CO)C(=O)N[C@@H](CO)C(=O)N[C@@H](Cc1c[nH]cn1)C(=O)N[C@@H](Cc1ccccc1)C(=O)N[C@@H](CCC(=O)O)C(=O)O [Peptide 143.1] (H-KRLGELFNPYYDPLQWKSSHFE-OH)
- EC50 (GPR55 [5]): 25.1 µM

Compound: CSCC[C@H](NC(=O)[C@H](Cc1c[nH]c2ccccc12)NC(=O)[C@H](Cc1c[nH]c2ccccc12)NC(=O)[C@H](CCC(=O)O)NC(=O)[C@@H]1CCCN1C(=O)[C@H](CCCNC(=N)N)NC(=O)CNC(=O)[C@@H](N)C(C)C)C(=O)N[C@@H](CC(=O)O)C(=O)N[C@@H](Cc1ccc(O)cc1)C(=O)N[C@@H](CCC(N)=O)C(=O)N[C@@H](CCCCN)C(=O)N[C@@H](CCCNC(=N)N)C(=O)N[C@@H](Cc1ccc(O)cc1)C(=O)NCC(=O)NCC(=O)N[C@@H](Cc1ccccc1)C(=O)N[C@@H](CC(C)C)C(=O)O [Peptide 158.4] (H-VGRPEWWMDYQKRYGGFL-OH)
- EC50 (BB3 [1]): 16.2 µM
- EC50 (BB3 [2]): 8.71 µM
- EC50 (BB3 [3]): 10.2 µM

Compound: CSCC[C@H](NC(=O)[C@H](Cc1c[nH]c2ccccc12)NC(=O)[C@H](Cc1c[nH]c2ccccc12)NC(=O)[C@H](CCC(=O)O)NC(=O)[C@@H]1CCCN1)C(=O)N[C@@H](CC(=O)O)C(=O)N[C@@H](Cc1ccc(O)cc1)C(=O)N[C@@H](CCC(N)=O)C(=O)N[C@@H](CCCCN)C(=O)N[C@@H](CCCNC(=N)N)C(=O)N[C@@H](Cc1ccc(O)cc1)C(=O)NCC(=O)NCC(=O)N[C@@H](Cc1ccccc1)C(=O)N[C@@H](CC(C)C)C(=O)O [Peptide 158.6] (H-PEWWMDYQKRYGGFL-OH)
- EC50 (BB3 [1]): 31.6 µM
- EC50 (BB3 [2]): 0.832 µM
- EC50 (BB3 [3]): 9.55 µM

Compound: CSCC[C@H](NC(=O)[C@H](CC(C)C)NC(=O)[C@H](Cc1cnc[nH]1)NC(=O)CNC(=O)[C@@H](NC(=O)[C@H](C)NC(=O)[C@H](Cc1c[nH]c2ccccc12)NC(=O)[C@H](Cc1cnc[nH]1)NC(=O)[C@H](CC(N)=O)NC(=O)CN)C(C)C)C(N)=O [Peptide 167.1]
- EC50 (BB3 [1]; [6]): 2.51 µM
- EC50 (BB3 [2]; [7]): 0.49 µM
- EC50 (GPR1): 22.9 µM
- EC50 (BB3 [3]; [8]): 14.5 µM

Compound: FLFHYSKTQKL [67 original]
- IP1 accumulation assays Emax (BB3 [1]; receptor BB3, mean, SEM and n (2-4)): 62.1 nM
- DMR assays Emax (peak or AUC) (BB3 [2]; [9]): 199
- Internalization assays Emax (AUC) (BB3 [3]; [9]): 14.6
